{
  "source": "PubChem BioAssay AID1396",
  "about": "(The Scripps Research Institute Molecular Screening Center, 2008)",
  "note": "The source made the active and inactive calls. The rule behind the calls is not given here.",
  "data": [
    {"molecular_target": "Signal transducer and activator of transcription 1-alpha/beta (Homo sapiens) (UniProt P42224)", "sequence (P42224 whole entry, looked up)": "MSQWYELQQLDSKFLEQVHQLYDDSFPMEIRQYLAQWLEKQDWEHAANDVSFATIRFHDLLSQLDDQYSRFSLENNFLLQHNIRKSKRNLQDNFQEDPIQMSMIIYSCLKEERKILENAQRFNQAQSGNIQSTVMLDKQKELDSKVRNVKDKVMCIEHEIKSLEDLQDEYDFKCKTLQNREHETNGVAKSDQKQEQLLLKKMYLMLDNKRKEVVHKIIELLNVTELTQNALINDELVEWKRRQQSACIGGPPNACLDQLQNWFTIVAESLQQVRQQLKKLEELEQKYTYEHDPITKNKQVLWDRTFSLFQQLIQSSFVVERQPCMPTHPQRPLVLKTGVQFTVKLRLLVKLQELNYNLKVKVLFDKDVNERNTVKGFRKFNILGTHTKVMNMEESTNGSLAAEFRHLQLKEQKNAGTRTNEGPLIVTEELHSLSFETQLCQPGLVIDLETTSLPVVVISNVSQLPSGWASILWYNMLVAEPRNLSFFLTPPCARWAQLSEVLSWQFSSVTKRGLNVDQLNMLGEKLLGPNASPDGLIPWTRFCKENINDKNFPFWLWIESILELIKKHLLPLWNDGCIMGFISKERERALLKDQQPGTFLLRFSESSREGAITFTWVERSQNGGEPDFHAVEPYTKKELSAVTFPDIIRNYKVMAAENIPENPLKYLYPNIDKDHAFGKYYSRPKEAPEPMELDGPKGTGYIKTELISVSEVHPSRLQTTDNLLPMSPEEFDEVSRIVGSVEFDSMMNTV", "test": "STAT1 signalling inhibitors, dose response, cell-based, NIH 3T3, luciferase reporter (AID 1396)", "details": "NIH 3T3 fibroblasts", "values": [
      {"smiles": "Cc1ccc(S(=O)(=O)N2CCN(C(C(=O)Nc3ccc(F)cc3)c3ccccc3)CC2)cc1", "note": "(centres undefined)", "IC50": "7.87 µM"},
      {"smiles": "CS(=O)(=O)c1nc(-c2ccccc2)cc(C(F)(F)F)n1", "IC50": "9.97 µM"},
      {"smiles": "CC1(C)Cc2c(ccc3ccccc23)C2=C(C(=O)N3CCCC3)C(=O)C(=O)N21", "IC50": "inactive"},
      {"smiles": "C#Cc1ccc([C@H]2C=C(C(=O)OCC=C)O[C@@H](OCC)[C@@H]2CCCO)cc1", "IC50": "inactive"},
      {"smiles": "CN1CCN(Cc2nc3ccccc3c(=O)n2Cc2nc(-c3cccc([N+](=O)[O-])c3)cs2)CC1", "IC50": "inactive"},
      {"smiles": "Cc1ccc2[nH]c3c(N4CCN(Cc5ccccc5)CC4)ncnc3c2c1", "IC50": "> 55.7 µM (inactive)"},
      {"smiles": "CCN(CC)S(=O)(=O)c1ccc(N2CCOCC2)c(NC(=O)c2cc(-c3ccccn3)nc3ccccc23)c1", "IC50": "inactive"},
      {"smiles": "Cc1cc(=O)n(C(NC(=O)c2ccccc2)C(=O)c2ccccc2)cn1", "note": "(centres undefined)", "IC50": "9.25 µM"},
      {"smiles": "COc1ccccc1-c1cc(C(F)(F)F)nc(S(=O)(=O)CCCC(=O)N2CCOCC2)n1", "IC50": "> 6.19 µM (inactive)"},
      {"smiles": "Cc1ccc(-c2csc3ncnc(Sc4nnc(CN5CCCCCC5=O)o4)c23)cc1", "IC50": "6.7 µM"},
      {"smiles": "CCOC(=O)N1CCN(C(=O)/C=C/c2c(C)nn(-c3ccc(F)cc3)c2Cl)CC1", "IC50": "inactive"},
      {"smiles": "COc1ccc(-n2c(SCc3cccnc3)nc3c(c2=O)SCC3)cc1OC", "IC50": "inactive"},
      {"smiles": "CCOC(=O)N1CCN(C(=O)c2ccc(CSc3ccc(Cl)cc3)cc2)CC1", "IC50": "> 55.7 µM (inactive)"},
      {"smiles": "O=C(c1ccc(Cl)cc1)N1CCN(c2ccnc3cc(Cl)ccc23)CC1", "IC50": "> 55.7 µM (inactive)"},
      {"smiles": "Cn1nnnc1Sc1ncnc2scc(-c3ccc(F)cc3)c12", "IC50": "inactive"},
      {"smiles": "COc1ccc(CCNC(=O)Cn2c(=O)n(-c3ccc(F)cc3)c(=O)c3sccc32)cc1OC", "IC50": "inactive"},
      {"smiles": "Cc1cc(NC(=O)CCCS(=O)(=O)c2nc(-c3cccs3)cc(C(F)(F)F)n2)no1", "IC50": "inactive"},
      {"smiles": "CN1CCN(Cc2nc3ccccc3c(=O)n2Cc2nc(-c3ccccc3F)cs2)CC1", "IC50": "4.24 µM"},
      {"smiles": "CN1CCN(Cc2nc3ccccc3c(=O)n2Cc2nc(-c3ccc4ccccc4c3)cs2)CC1", "IC50": "9.58 µM"},
      {"smiles": "Cc1ccccc1-c1noc(N)c1C#N", "IC50": "> 55.7 µM (inactive)"},
      {"smiles": "COC(=O)CCS(=O)(=O)c1nc(-c2ccccc2)cc(C(F)(F)F)n1", "IC50": "inactive"},
      {"smiles": "O=C(c1ccco1)N1CCN(c2ncnc3c2[nH]c2ccc(Br)cc23)CC1", "IC50": "inactive"},
      {"smiles": "CS(=O)(=O)c1nc(-c2ccc(F)cc2)cc(C(F)(F)F)n1", "IC50": "inactive"},
      {"smiles": "CCOC(=O)N1CCN(C(=O)c2ccc(-n3c(=S)[nH]c4ccccc4c3=O)cc2)CC1", "IC50": "3.47 µM"},
      {"smiles": "COc1ccc(CCNc2ncnc3cc(OC)c(OC)cc23)cc1OC", "IC50": "> 55.7 µM (inactive)"},
      {"smiles": "CCOC(=O)CCS(=O)(=O)c1nc(-c2ccccc2)cc(C(F)(F)F)n1", "IC50": "inactive"},
      {"smiles": "Cc1cccc(/C=C(\\c2nc3ccccc3[nH]2)S(=O)(=O)c2ccccc2)c1", "IC50": "> 55.7 µM (inactive)"},
      {"smiles": "COCC(C)NC(=O)CCS(=O)(=O)c1nc(-c2ccc(OC)cc2)cc(C(F)(F)F)n1", "note": "(centres undefined)", "IC50": "inactive"},
      {"smiles": "COC(=O)C1=CN(Cc2ccc(OC)c(OC)c2)C=C(C(=O)OC)C1c1cccs1", "IC50": "inactive"},
      {"smiles": "CCn1c(O)c(/C=N/NC(=O)c2ccncc2)c(=O)n(CC)c1=S", "IC50": "4.42 µM"},
      {"smiles": "CS(=O)(=O)c1nc(-c2ccco2)cc(C(F)(F)F)n1", "IC50": "> 18.6 µM (inactive)"},
      {"smiles": "O=c1cc(CSc2nc3ccccc3c(=O)[nH]2)c2ccc(O)cc2o1", "IC50": "4.36 µM"},
      {"smiles": "CCOC(=O)c1c(C)nc2sc3c(=O)n(-c4ccc(OC)cc4)nnc3c2c1-c1ccc(OC)cc1", "IC50": "inactive"},
      {"smiles": "COc1ccccc1-c1cc(C(F)(F)F)nc(S(C)(=O)=O)n1", "IC50": "> 18.6 µM (inactive)"},
      {"smiles": "O=C(c1ccc2c(c1)N(Cc1ccccc1)C(=O)c1ccccc1S2)N1CCCC1", "IC50": "8.43 µM"},
      {"smiles": "Cc1ccc(-n2nc(C(=O)O)c3ccccc3c2=O)cc1C", "IC50": "5.2 µM"},
      {"smiles": "COc1ccc(CNc2ncnc3cc(Cl)ccc23)cc1OC", "IC50": "inactive"},
      {"smiles": "CCn1c(=O)c2cc(C(=O)N3CCCC3)sc2c2ccccc21", "IC50": "inactive"},
      {"smiles": "Cc1ccccc1NC(=O)C(=Cc1ccc(C(=O)O)cc1)C(=O)Nc1ccccc1C", "IC50": "inactive"},
      {"smiles": "Cn1c(C(=O)N2CCN(c3ccc([N+](=O)[O-])cc3)CC2)cc2c(=O)[nH]c3ccccc3c21", "IC50": "inactive"},
      {"smiles": "COc1ccccc1-c1cc(C(F)(F)F)nc(S(=O)(=O)CCCC(=O)Nc2cccnc2Cl)n1", "IC50": "> 18.6 µM (inactive)"},
      {"smiles": "O=C(CSc1nc2ccccc2c(=O)[nH]1)c1ccc(O)cc1O", "IC50": "9.39 µM"},
      {"smiles": "Cc1ccc(C(=O)Nc2cccc(N(C)S(C)(=O)=O)c2)cc1S(=O)(=O)Nc1ccccc1", "IC50": "inactive"},
      {"smiles": "COc1ccc(-c2cc(C(F)(F)F)nc(S(=O)(=O)CCCC(=O)Nc3cc(C)on3)n2)cc1OC", "IC50": "inactive"},
      {"smiles": "COc1ccc(-c2cc(C(F)(F)F)nc(S(=O)(=O)CCCC(=O)Nc3cccnc3Cl)n2)cc1OC", "IC50": "inactive"},
      {"smiles": "COc1ccccc1CNc1ncnc2cc(Cl)ccc12", "IC50": "> 55.7 µM (inactive)"},
      {"smiles": "CCOc1cc(-c2noc(N)c2C#N)cc(OCC)c1OCC", "IC50": "> 55.7 µM (inactive)"},
      {"smiles": "O=C(NNC(=O)c1cccc(S(=O)(=O)N2CCc3ccccc32)c1)c1ccccc1", "IC50": "> 55.7 µM (inactive)"},
      {"smiles": "COc1ccc(-c2cc(C(F)(F)F)nc(S(=O)(=O)CCCC(=O)Nc3cccc(O)c3)n2)cc1OC", "IC50": "inactive"}
    ]}
  ]
}
